Measurements taken from PubChem BioAssay (NCI).
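Briefly, cells in 96-well plates were exposed to five compound concentrations for 48 h, and endpoints were estimated by linear interpolation. Definition used: TGI = concentration required for complete inhibition of growth.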

Key:
Test in all cases: NCI anticancer screen, dose series, 48 h
[1] = test system: CAKI-1 renal
[2] = test system: MDA-MB-435
[3] = test system: MALME-3M melanoma
[4] = test system: LOX IMVI melanoma
[5] = test system: SF-295 CNS
[6] = test system: OVCAR-3 ovarian
[7] = test system: 786-0 renal
[8] = test system: PC-3 prostate
[9] = test system: NCI-H460 lung
[10] = test system: MDA-N
[11] = test system: TK-10 renal
[12] = test system: HCT-15 colon
[13] = test system: K-562 leukemia
[14] = test system: HCT-116 colon
[15] = test system: DU-145 prostate
[16] = test system: UO-31 renal
[17] = test system: UACC-62 melanoma
[18] = test system: BT-549 breast
[19] = test system: SK-MEL-5 melanoma
[20] = test system: SW-620 colon
[21] = test system: HL-60(TB) leukemia
[22] = test system: HCC-2998 colon
[23] = test system: SR leukemia
[24] = test system: HT29 colon
[25] = test system: HOP-92 NSCLC
[26] = test system: RPMI-8226 leukemia
[27] = test system: RXF 393 renal
[28] = test system: OVCAR-4 ovarian
[29] = test system: SF-539 CNS
[30] = test system: EKVX NSCLC
[31] = test system: MCF7 breast
[32] = test system: ACHN renal
[33] = test system: U251 CNS
[34] = test system: SNB-19 CNS
[35] = test system: IGROV1 ovarian
[36] = test system: NCI-H226 lung
[37] = test system: SK-MEL-28 melanoma
[38] = test system: HOP-62 NSCLC
[39] = test system: HS 578T breast
[40] = test system: MDA-MB-231 breast
[41] = test system: MOLT-4 leukemia
[42] = test system: NCI/ADR-RES ovarian
[43] = test system: A498 renal
[44] = test system: OVCAR-8 ovarian
[45] = test system: SK-MEL-2 melanoma
[46] = test system: NCI-H522 lung
[47] = test system: SF-268 CNS
[48] = test system: COLO 205 colon
[49] = test system: M14 melanoma
[50] = test system: OVCAR-5 ovarian
[51] = test system: SN12C renal
[52] = test system: UACC-257 melanoma
[53] = test system: NCI-H23 lung
[54] = test system: A549 NSCLC
[55] = test system: KM12 colon
[56] = test system: CCRF-CEM leukemia
[57] = test system: SNB-75 CNS
[58] = test system: SK-OV-3 ovarian

With `CC(C)OC(=O)C1=C2c3ncccc3C(=O)N2[C@@H](Cl)[C@@H](Cl)[C@@H]1Cl` the TGI [1] was > 100 µM, the TGI [2] was > 100 µM and the TGI [3] was > 100 µM. For the same molecule, the TGI [4] was > 100 µM, the TGI [5] was > 100 µM and the TGI [6] was > 100 µM. For the same molecule, the TGI [7] was > 100 µM, the TGI [8] was > 100 µM and the TGI [9] was > 100 µM. For the same molecule, the TGI [10] was > 100 µM, the TGI [11] was > 100 µM and the TGI [12] was > 100 µM. The TGI [13] was > 100 µM, the TGI [14] was > 100 µM and the TGI [15] was > 100 µM. For the same molecule, the TGI [16] was > 100 µM, the TGI [17] was > 100 µM and the TGI [18] was > 100 µM. For the same molecule, the TGI [19] was > 100 µM, the TGI [20] was > 100 µM and the TGI [21] was > 100 µM. The TGI [22] was > 100 µM, the TGI [23] was > 100 µM and the TGI [24] was > 100 µM. For the same molecule, the TGI [25] was > 100 µM, the TGI [26] was > 100 µM and the TGI [27] was > 100 µM. The TGI [28] was > 100 µM, the TGI [29] was > 100 µM and the TGI [30] was > 100 µM. The TGI [31] was > 100 µM, the TGI [32] was > 100 µM and the TGI [33] was > 100 µM. For the same molecule, the TGI [34] was > 100 µM, the TGI [35] was > 100 µM and the TGI [36] was > 100 µM. The TGI [37] was > 100 µM, the TGI [38] was > 100 µM and the TGI [39] was > 100 µM. For the same molecule, the TGI [40] was > 100 µM, the TGI [41] was 95.9 µM and the TGI [42] was > 100 µM. For the same molecule, the TGI [43] was > 100 µM, the TGI [44] was > 100 µM and the TGI [45] was > 100 µM. For the same molecule, the TGI [46] was > 100 µM, the TGI [47] was > 100 µM and the TGI [48] was > 100 µM. For the same molecule, the TGI [49] was > 100 µM, the TGI [50] was > 100 µM and the TGI [51] was 90.4 µM. The TGI [52] was > 100 µM, the TGI [53] was > 100 µM and the TGI [54] was > 100 µM. The TGI [55] was > 100 µM.
In the case of `CS(=O)(=O)N1CC(CI)c2ccc(O)cc21` (stereo not drawn), the TGI [1] was 12.9 µM, the TGI [56] was 17.4 µM and the TGI [2] was 4.2 µM. The TGI [3] was 4.43 µM, the TGI [4] was 17.2 µM and the TGI [57] was 6.02 µM. For the same molecule, the TGI [5] was 13.4 µM, the TGI [6] was 7.71 µM and the TGI [7] was 12.7 µM. It also gave a TGI [8] of 6.51 µM, a TGI [9] of 10.9 µM and a TGI [10] of 6.4 µM. For the same molecule, the TGI [11] was 7.3 µM, the TGI [12] was 12.3 µM and the TGI [13] was 24.2 µM. It also gave a TGI [14] of 12.6 µM, a TGI [15] of 9.36 µM and a TGI [16] of 11.6 µM. It also gave a TGI [18] of 15.6 µM, a TGI [19] of 3.26 µM and a TGI [21] of 6.09 µM. The TGI [22] was 4.69 µM, the TGI [23] was 7.33 µM and the TGI [24] was 15.9 µM. The TGI [25] was 6.31 µM, the TGI [26] was 19.1 µM and the TGI [27] was 3.44 µM. It also gave a TGI [28] of 5.95 µM, a TGI [29] of 8.66 µM and a TGI [30] of 14.4 µM. For the same molecule, the TGI [31] was 15.1 µM, the TGI [32] was 12.9 µM and the TGI [33] was 10 µM. The TGI [35] was 29.3 µM, the TGI [36] was 10.7 µM and the TGI [37] was 14.3 µM. For the same molecule, the TGI [38] was 7.62 µM, the TGI [39] was > 100 µM and the TGI [40] was 8.53 µM. For the same molecule, the TGI [41] was 9.65 µM, the TGI [42] was 18 µM and the TGI [43] was 7.46 µM. It also gave a TGI [44] of 11.7 µM, a TGI [45] of 5.49 µM and a TGI [46] of 2.99 µM. It also gave a TGI [47] of 16.1 µM, a TGI [48] of 12.3 µM and a TGI [51] of 15.8 µM. The TGI [53] was 5.32 µM, the TGI [54] was 17 µM and the TGI [55] was 15 µM.
`O=C(O)CNC(=O)C(CSC(=O)OCC1c2ccccc2-c2ccccc21)NC(=O)CCC(NC(=O)OCC1c2ccccc2-c2ccccc21)C(=O)O` (stereo not drawn) gave a TGI [1] of 15.7 µM, a TGI [56] of 41.2 µM and a TGI [2] of 34.1 µM. It also gave a TGI [3] of 59.4 µM, a TGI [4] of 0.577 µM and a TGI [5] of 30.5 µM. For the same molecule, the TGI [6] was > 100 µM, the TGI [7] was 9.13 µM and the TGI [8] was 28.9 µM. For the same molecule, the TGI [9] was 34.2 µM, the TGI [10] was 82.3 µM and the TGI [11] was 56 µM. It also gave a TGI [12] of 64.8 µM, a TGI [13] of 39.2 µM and a TGI [14] of 32.6 µM. The TGI [15] was 28.6 µM, the TGI [16] was 33 µM and the TGI [18] was > 100 µM. For the same molecule, the TGI [19] was > 100 µM, the TGI [20] was 35.1 µM and the TGI [21] was > 100 µM. The TGI [22] was > 100 µM, the TGI [23] was 15.4 µM and the TGI [25] was 36.3 µM. It also gave a TGI [26] of 46.4 µM, a TGI [27] of 34.7 µM and a TGI [28] of 29.5 µM. The TGI [29] was 30.6 µM, the TGI [30] was 32.2 µM and the TGI [31] was > 100 µM. For the same molecule, the TGI [32] was 32.8 µM, the TGI [34] was > 100 µM and the TGI [35] was 26.8 µM. For the same molecule, the TGI [36] was > 100 µM, the TGI [58] was > 100 µM and the TGI [37] was > 100 µM. For the same molecule, the TGI [38] was 28.9 µM, the TGI [39] was > 100 µM and the TGI [40] was 31.9 µM. For the same molecule, the TGI [41] was 45.4 µM, the TGI [42] was 33.7 µM and the TGI [44] was 32.4 µM. For the same molecule, the TGI [45] was > 100 µM, the TGI [46] was 3.52 µM and the TGI [47] was 33.1 µM. For the same molecule, the TGI [48] was 31.1 µM, the TGI [49] was > 100 µM and the TGI [50] was > 100 µM. For the same molecule, the TGI [51] was 30.7 µM, the TGI [52] was > 100 µM and the TGI [53] was > 100 µM. For the same molecule, the TGI [54] was 28 µM.
